In patent EP0520200B1, “Imidazole compounds, their preparation and use” (NEUROSEARCH A/S, priority 1991, dated 1992):
pIC50: −log10 of the molar value.

How the values were obtained:
[1] = system: voltage operated calcium channels; assay: Depolarization (potassium) induced 45Ca uptake into synaptosomes; assay type: biochemical, male Wistar rat; conditions: concentration inhibiting 50% of potassium stimulated uptake of 45Ca; rat cerebral cortex synaptosomes; corrected for basal uptake in non-depolarized samples
Method: A crude synaptosome preparation contains small vesicles surrounded by neuronal membranes, and it is possible to study an opening of the voltage operated calcium channels in such a preparation.
In the below described test influx of ^45Ca into synaptosomes is studied under depolarized conditions. The effect of test substances on the depolarization induced calcium uptake can thus be studied.
The cerebral cortex from a male Wistar rat is homogenized in 20 ml ice cold 0.32M saccharose. In the following steps the temperature is kept at 0°C to 4°C. The homogenate is centrifuged at 1,000 x g for 10 minutes and the supernatant recentrifuged for 20 minutes at 18,000 x g. The obtained pellet is resuspended in 0.32M saccharose (10 ml per g of original tissue).
Aliquots of 0.05 ml of the hereby obtained synaptosome suspension are added to glass tubes containing 0.625 ml of a NaCl buffer (136 mM Nacl, 4 Mm KCl, 0.35 mM CaCl2, 1.2 mM MgCl2, 20 mM Tris HCl, 12 mM glucose, pH 7.4) as well as 0.025 ml of different test substances in 48% ethanol. These tubes are pre-incubated for 30 minutes on ice and thereafter for 6 minutes at 37°C.
^45Ca uptake is initiated by addition to above glass-tubes of 0.4 ml ^45CaCl2 (specific activity: 29-39 Ci/g; […] per tube). For depolarized samples the 0.4 ml ^45CaCl2 contain KCl (145 mM) and for non-depolarized NaCl (145 mM). The samples are incubated for 15 seconds.
The ^45Ca uptake is stopped by filtering through glass fibre filters, which are subsequently washed 3 times with an ice cold solution of 145 mM KCl, 7 mM EGTA and 20 mM Tris HCl, pH 7.4 (5.0 ml). The radioactivity on the filters are measured by liquid scintillation spectrometry. Experiments are performed in duplicate.
Above test substances are dissolved in for example 10 ml 48% ethanol at a concentration of 0.44 mg/ml. Dilutions are made in ethanol. Test substances are tested at concentrations of 0.1, 0.3, 1, 3, 10 .... µg/ml.
The test value is given as IC50, that is the concentration in µM of the test substances, which inhibit 50% of the potassium stimulated uptake of ^45Ca. […]

hypermotility in mice = assay: Hypermotility in mice induced by amphetamine or cocaine; assay type: in vivo; conditions: result in words
Text: This is in full accordance with the influence of N-type calcium channel blockers on transmitter release in the central nervous system. Therefore the compounds of the invention are useful as anti-psychotics.

Compound	pIC50 [1]	antagonism of hypermotility (hypermotility in mice)
COc1ccc(OC)c(-n2c(N)nc3cc(C(F)(F)F)ccc32)c1 [1-(2,5-dimethoxyphenyl)-2-amino-5-trifluoromethyl-benzimidazole]	6.15	–
Nc1nc2cc(F)ccc2n1-c1cccc(N2CCCC2)c1 [1-(5-(1-pyrrolidinyl)-phenyl)-2-amino-5-fluoro-benzimidazole]	5.70	–
Nc1nc2cc(C(F)(F)F)ccc2n1-c1cc(Cl)ccc1O [1-(2-hydroxy-5-chlorophenyl)-5-trifluoromethyl-2-amino-benzimidazole]	5.70	–
Nc1nc2ccccc2n1-c1cc(-c2ccccc2)ccc1O [1-(2-hydroxy-5-phenyl-phenyl)-2-aminobenzimidazole]	–	potently antagonize
